In patent US20100113460A1, “Organic Compounds” (Givaudan SA, priority 2007, published 2010):
Like-named read-outs stand apart in the source and are kept apart here.

Columns and labels:
[1] = molecular target: T1, CYP2A6 (Homo sapiens, UniProt P11509); experiment: CYP2A6 inhibition, coumarin to Umbelliferone fluorescence assay in microsomes; format: biochemical; settings: substrate coumarin 0.003 mM, 60 min at 37° C.; read-out: CYP2A6 inhibitor activity IC50
T1 construct: purchased BD Biosciences Gentest, USA
T1 sequence (P11509 1-494): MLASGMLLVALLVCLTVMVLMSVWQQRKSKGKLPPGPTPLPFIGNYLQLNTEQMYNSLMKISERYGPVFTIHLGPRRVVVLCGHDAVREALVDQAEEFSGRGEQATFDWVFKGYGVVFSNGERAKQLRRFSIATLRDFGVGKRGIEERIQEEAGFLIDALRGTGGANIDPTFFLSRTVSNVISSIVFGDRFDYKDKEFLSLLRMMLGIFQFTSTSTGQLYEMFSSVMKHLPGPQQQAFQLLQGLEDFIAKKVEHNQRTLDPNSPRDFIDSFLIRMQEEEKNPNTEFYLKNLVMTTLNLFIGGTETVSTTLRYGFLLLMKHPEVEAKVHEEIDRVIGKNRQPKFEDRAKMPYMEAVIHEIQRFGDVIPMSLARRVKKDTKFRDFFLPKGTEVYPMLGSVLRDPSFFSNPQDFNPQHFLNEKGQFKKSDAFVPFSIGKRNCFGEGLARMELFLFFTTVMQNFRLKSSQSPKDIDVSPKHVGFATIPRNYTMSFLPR
Procedure: Test compounds that inhibit the activity of CYP2A6 are identified by using the same principle as described in Example 28, first paragraph.
A test compound (details see list below) was incubated with CYP2A6 in the presence of a cytochrome P450 reductase. CYP2A6 and P450 reductase were employed in form of microsomes (BD Biosciences Gentest, USA). Microsomes were used which contained 2 pmoles CYP2A6 and an amount of NADPH-P450 reductase corresponding to cytochrome c reductase activity of 87 nmole/(min×mg protein). […] The concentration of the standard substrate coumarin was 0.003 mM.
The samples were analysed spectrofluorometrically according to the procedure described in Example 28.

[2] = molecular target: T2, Human CYP2B6 (Homo sapiens, UniProt P20813); experiment: Inhibition of human CYP2B6, 7-ethoxy-4-trifluoromethyl-coumarin fluorescence assay in microsomes; format: biochemical; settings: substrate 7-ethoxy-4-trifluoromethyl-coumarin 6 μM, 40 min at 37° C.; read-out: CYP2B6 inhibitor activity IC50
T2 construct: made in house; host or cells: Sf9 insect cells, recombinant baculoviruses (coexpression)
T2 sequence (P20813 1-491): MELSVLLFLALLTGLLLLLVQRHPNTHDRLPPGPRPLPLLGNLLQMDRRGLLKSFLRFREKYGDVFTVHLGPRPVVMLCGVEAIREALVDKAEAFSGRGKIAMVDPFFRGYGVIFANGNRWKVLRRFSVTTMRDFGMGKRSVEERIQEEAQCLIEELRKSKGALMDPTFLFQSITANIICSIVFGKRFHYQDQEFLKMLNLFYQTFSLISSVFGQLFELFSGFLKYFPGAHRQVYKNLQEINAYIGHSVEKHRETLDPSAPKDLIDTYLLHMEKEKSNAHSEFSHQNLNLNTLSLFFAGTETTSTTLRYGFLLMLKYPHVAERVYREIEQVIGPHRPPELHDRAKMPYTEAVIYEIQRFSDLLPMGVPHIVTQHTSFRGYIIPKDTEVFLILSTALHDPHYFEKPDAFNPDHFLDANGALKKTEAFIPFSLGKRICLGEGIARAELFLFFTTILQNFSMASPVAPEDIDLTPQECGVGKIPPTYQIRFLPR
Procedure: Test compounds that inhibit the activity of CYP2B6 are identified by using the same principle as described in Example 28, first paragraph.
A test compound (details see Table 3) was incubated with CYP2B6 in the presence of a cytochrome P450 reductase. CYP2B6 and P450 reductase are produced using recombinant baculoviruses and co-expressing the two proteins in Sf9 insect cells as described in Example 28. Alternatively, microsomes containing CYP2B6 and the reductase are commercially available (BD Biosciences Gentest, USA). Microsomes were used which contained 1.5 pmoles CYP2B6. Potassium phosphate buffer final concentration was 100 mM, (1M stock, pH 7.4). […] The concentration of the standard substrate 7-ethoxy-4-trifluoromethyl-coumarin was 6 μM. […] The samples were incubated for 40 min at 37° C.

[3] = molecular target: T3, CYP2A13 (Homo sapiens, UniProt Q16696); experiment: CYP2A13 inhibition, coumarin to 7-hydroxy-coumarin (Umbelliferone) fluorescence assay in microsomes
T3 sequence (Q16696 1-494): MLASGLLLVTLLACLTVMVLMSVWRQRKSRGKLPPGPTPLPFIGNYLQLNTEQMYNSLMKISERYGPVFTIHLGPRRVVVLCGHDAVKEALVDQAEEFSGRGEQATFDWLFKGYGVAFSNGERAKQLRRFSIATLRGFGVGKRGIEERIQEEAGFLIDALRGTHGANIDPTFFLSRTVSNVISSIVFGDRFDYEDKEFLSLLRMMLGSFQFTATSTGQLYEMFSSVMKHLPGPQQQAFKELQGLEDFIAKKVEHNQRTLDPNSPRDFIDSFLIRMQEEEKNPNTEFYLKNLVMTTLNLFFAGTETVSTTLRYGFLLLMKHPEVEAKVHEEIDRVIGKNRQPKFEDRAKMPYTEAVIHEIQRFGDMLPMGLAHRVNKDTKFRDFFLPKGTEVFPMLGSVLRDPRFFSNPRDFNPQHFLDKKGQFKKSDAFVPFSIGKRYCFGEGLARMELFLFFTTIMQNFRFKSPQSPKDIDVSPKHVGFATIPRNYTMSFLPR
Procedure: Compounds that inhibit the activity of CYP2A13 are identified by using a standard reaction established for the enzyme. A known substrate is coumarin, and the product of the enzymatic reaction is 7-hydroxy-coumarin (Umbelliferone) which is strongly fluorescent. When a compound is added to the standard reaction and the formation of Umbelliferone is decreased, the compound is identified as an inhibitor, which can also be a competitive substrate of the enzyme. The compound is used at various concentrations and the concentration-dependent decrease in Umbelliferone formation allows to determine the concentration where the activity of the enzyme is reduced to the 50% level (IC50 value).
A test compound (details see Table 1) was incubated with CYP2A13 in the presence of a cytochrome P450 reductase. CYP2A13 and P450 reductase were employed in form of microsomes. […] Preferably, the two enzymes are coexpressed in the same insect cells and microsomes prepared which contain both enzymes. […] An MOI of 4 for recombinant CYP2A13 baculovirus combined with an MOI of 3.5 for recombinant P450 reductase baculovirus routinely produced microsomes with considerable activity.
Microsomes were used which contained 7 pmoles CYP2A13. […] The concentration of the standard substrate coumarin was 0.006 mM. […] The mixture was incubated for 10 min at 37° C. prior to the initiation of the enzymatic reaction by the addition of 0.005 ml of a solution of 50 mM NADPH in water. The final total volume was 0.2 ml, which is suitable for microtiter plate measurements. The samples were incubated for 60 min at 37° C. After 60 min, the enzymatic reaction was stopped by the addition of 0.02 ml cold 50% trichloroacetic acid (TCA) and incubated at 4° C. for 15 min. 0.005 ml of a solution of 50 mM NADPH in water was added to the control reaction which corresponds to the reaction without test compound and without NADPH, and as a consequence, no Umbelliferone was formed. Denatured proteins and other insoluble parts were separated by centrifugation (10 min, 560×g, room-temperature).
The samples were analysed spectrofluorometrically which allows to detect the formation of Umbelliferone as the enzymatic product of coumarin at an excitation wavelength of 340 nm and an emission wavelength of 480 nm.

IC50 [1] | IC50 [2] | IC50 [3] | IC50 ([3]; read-out: CYP2A13 inhibitor activity IC50, substrate coumarin 0.006 mM, 60 min at 37° C.) | SMILES
13 µM |  | 0.4 µM |  | CCCCCCC1=C(C)CCC1=O [Compound ID 3, 2-hexyl-3-methylcyclopent-2-enone]
54 µM |  | 1.6 µM |  | CC/C=C\CC1=C(C)CCC1=O [Compound ID 10, (Z)-3-methyl-2-(pent-2-enyl)cyclopent-2-enone]
56 µM |  | 1.6 µM |  | CCCCC1OC(=O)CC1C (stereo not shown) [Compound ID 11, 4-methyl-5-butyldihydrofuran-2(3H)-one]
2 µM |  | 4.2 µM |  | CCCCCn1ccnc1 [Compound ID 28, 1-pentyl-1H-imidazole]
 |  | 8.3 µM |  | CCCCCC1=CCCC1=O [Compound ID 51, 2-pentylcyclopent-2-enone]
 |  | 8.3 µM |  | CC/C=C/CC1=C(CC(=O)OC)CCC1=O [Compound ID 52]
 |  | 12.7 µM |  | CC/C=C\CCOC(=O)C1CCCC1=O (stereo not shown) [Compound ID 61]
 |  | 15.1 µM |  | CCCCC1CCC(=O)O1 (stereo not shown) [Compound ID 63, 5-butyldihydrofuran-2(3H)-one]
 |  | 17.6 µM |  | CC1CCC2(CCC(=O)O2)CC1 (stereo not shown) [Compound ID 69, 8-methyl-1-oxaspiro[4.5]decan-2-one]

Continued, molecule first:

SMILES | IC50 [1] | IC50 [2] | IC50 [3] | IC50 ([3]; read-out: CYP2A13 inhibitor activity IC50, substrate coumarin 0.006 mM, 60 min at 37° C.)
c1ncc2c(n1)CCCCCCCCCC2 [Compound ID 1, 5,6,7,8,9,10,11,12,13,14-decahydrocyclododeca[d]pyrimidine] | 9 µM | 2.7 µM | 0.3 µM | 
c1nc2c(o1)CCCCCCCCCC2 [Compound ID 15, 4,5,6,7,8,9,10,11,12,13-decahydrocyclododeca[d]oxazole] | 53 µM | 5.4 µM | 2 µM | 
CCCCCCn1ccnc1 [Compound ID 16, 1-hexyl-1H-imidazole] |  | 0.6 µM |  | 2.1 µM
CC/C=C\CCn1ccnc1 [Compound ID 23, (Z)-1-(hex-3-enyl)-1H-imidazole] | 7 µM | 2.2 µM | 3.4 µM | 
C=CCCCCn1ccnc1 [Compound ID 41, 1-(hex-5-enyl)-1H-imidazole] |  | 1.9 µM | 5.9 µM | 
CC(C)=CCC/C(C)=C\Cn1ccnc1 [Compound ID 44, 1-(3,7-dimethylocta-2,6-dienyl)-1H-imidazole] | 6 µM | 0.1 µM | 6.4 µM | 
c1cn2c(n1)CCCCCCCCCC2 [Compound ID 53, 5,6,7,8,9,10,11,12,13,14-decahydroimidazo[1,2-a][1]azacyclododecine] |  |  | 8.5 µM | 
CC/C=C\Cn1ccnc1 [Compound ID 54, (Z)-1-(pent-2-enyl)-1H-imidazole] | 7 µM |  | 9.4 µM | 
N#CCCCCn1ccnc1 [Compound ID 55, 5-(1H-imidazol-1-yl)pentanenitrile] |  |  | 9.5 µM | 
C=CCCCCCc1cnccn1 [Compound ID 57, 2-(hept-6-enyl)pyrazine] |  | 0.6 µM | 10.2 µM | 
c1nc2c([nH]1)CCCCCCCCCC2 [Compound ID 59, 4,5,6,7,8,9,10,11,12,13-decahydro-1H-cyclododeca[d]imidazole] |  |  | 11.5 µM | 
c1nc2c(o1)CCCCCC2 [Compound ID 60, 4,5,6,7,8,9-hexahydrocycloocta[d]oxazole] |  |  | 11.4 µM | 
c1cn2c(n1)CCCCCCCCCCC2 [Compound ID 64, 6,7,8,9,10,11,12,13,14,15-decahydro-5H-imidazo[1,2-a][1]azacyclotridecine] |  |  | 14.6 µM | 
O=C1CCCCCCCCCCN1 [Compound ID 65, azacyclododecan-2-one] |  |  | 15.6 µM | 
OCCCCn1ccnc1 [Compound ID 68, 4-(1H-imidazol-1-yl)butan-1-ol] |  |  | 16.1 µM | 
